Data: PubChem BioAssay AID1259411 (Chemical Carcinogenesis Research Information System (CCRIS), 2018)
Active and inactive are the calls of the source. No rule for the calls is given here.

System: rodent carcinogenicity bioassays, tumor incidence
Test: CCRIS carcinogenicity studies
Method in brief: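 Archive of carcinogenicity, mutagenicity, tumor promotion and tumor inhibition results drawn from journals, NCI reports and other sources, expert-reviewed; covers 1985-2011 and is no longer updated.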

COc1ccccc1N
carcinogen call (Species: MOUSE, Strain/Sex: B6C3F1/FEMALE, Route: ORAL, Dose: 0, 2500, 5000 PPM IN DIET FOR 103 WK (STUDY DURATION: 105 WK), Dose: 0, 2500, 5000 PPM IN DIET FOR 103 WK (STUDY DURATION: 105 WK), Tumor Site: Type of Lesion: URINARY BLADDER: TRANSITIONAL CELL CARCINOMA, TRANSITIONAL CELL PAPILLOMA OR CARCINOMA): active; positive | carcinogen call (Species: MOUSE, Strain/Sex: B6C3F1/MALE, Route: ORAL, Dose: 0, 2500, 5000 PPM IN DIET FOR 103 WK (STUDY DURATION: 104-105 WK), Dose: 0, 2500, 5000 PPM IN DIET FOR 103 WK (STUDY DURATION: 104-105 WK), Tumor Site: Type of Lesion: URINARY BLADDER: TRANSITIONAL CELL CARCINOMA, TRANSITIONAL CELL PAPILLOMA OR CARCINOMA): active; positive | carcinogen call (Species: RAT, Strain/Sex: F344/FEMALE, Route: ORAL, Dose: 0, 5000, 10000 PPM IN DIET FOR 83-103 WK (STUDY DURATION: 83-107 WK), Dose: 0, 5000, 10000 PPM IN DIET FOR 83-103 WK (STUDY DURATION: 83-107 WK), Tumor Site: Type of Lesion: URINARY BLADDER: TRANSITIONAL CELL CARCINOMA, TRANSITIONAL CELL PAPILLOMA OR CARCINOMA): active; positive | carcinogen call (Species: RAT, Strain/Sex: F344/MALE, Route: ORAL, Dose: 0, 5000, 10000 PPM IN DIET FOR 88-103 WK (STUDY DURATION: 88-106 WK), Dose: 0, 5000, 10000 PPM IN DIET FOR 88-103 WK (STUDY DURATION: 88-106 WK), Tumor Site: Type of Lesion: KIDNEY OR KIDNEY (PELVIS): TRANSITIONAL CELL CARCINOMA, URINARY BLADDER: TRANSITIONAL CELL CARCINOMA, TRANSITIONAL CELL): active; positive

CC1CN(N=O)CCC1=O (configuration not stated)
carcinogen call (Species: RAT, Strain/Sex: F344/FEMALE, Route: ORAL, Dose: 0, 80 ML OF SOLUTION OF 126 MG/L IN NEUTRAL DEIONIZED DRINKING WATER 5 D/WK FOR 26 WK (STUDY DURATION: 40 WK), Tumor Site: Type of Lesion: NASAL CAVITY: SQUAMOUS CELL CARCINOMA, TONGUE: TUMOR, FORESTOMACH: TUMOR, ESOPHAGUS: TUMOR, TRACHEA: TUMOR, Tumor Site: Type of Lesion: NASAL CAVITY: SQUAMOUS CELL CARCINOMA, TONGUE: TUMOR, FORESTOMACH: TUMOR, ESOPHAGUS: TUMOR, TRACHEA: TUMOR): active; positive

C[C@@]12CCC[C@H]1[C@@H]1CCc3cc(O)ccc3[C@H]1CC2
carcinogen call (Species: HAMSTER, Strain/Sex: SYRIAN/MALE, Route: SUBCUTANEOUS IMPLANT, Dose: 0, 20 MG IN PELLETS IMPLANTED EVERY 2.5 MO FOR 9 MO (STUDY DURATION: 9 MO)): inactive; negative

CC(=O)c1ccc(S(=O)(=O)NC(=O)NC2CCCCC2)cc1
carcinogen call (Species: MOUSE, Strain/Sex: B6C3F1/FEMALE, Route: ORAL, Dose: 0, 6359, 12718 PPM IN DIET, TWA, Dose: 0, 6359, 12718 PPM IN DIET, TWA): inactive; negative | carcinogen call (Species: MOUSE, Strain/Sex: B6C3F1/MALE, Route: ORAL, Dose: 0, 6359, 12718 PPM IN DIET, TWA, Dose: 0, 6359, 12718 PPM IN DIET, TWA): inactive; negative | carcinogen call (Species: RAT, Strain/Sex: F344/FEMALE, Route: ORAL, Dose: 0, 10000, 20000 PPM IN DIET, Dose: 0, 10000, 20000 PPM IN DIET): inactive; negative | carcinogen call (Species: RAT, Strain/Sex: F344/MALE, Route: ORAL, Dose: 0, 10000, 20000 PPM IN DIET, Dose: 0, 10000, 20000 PPM IN DIET): inactive; negative

CC1CN1 (configuration not stated)
carcinogen call (Species: RAT, Strain/Sex: STRAIN-CD/FEMALE, Route: GAVAGE, Dose: 10.5, 20.7 MG/KG (AVE DOSE) IN WATER 2/WK FOR 58 WK (LOW DOSE) OR 27 WK (HIGH DOSE), Tumor Site: Type of Lesion: INTESTINES: ADENOCARCINOMA, BRAIN (CEREBRUM): GLIOMA, EAR (DUCT): SQUAMOUS CELL CARCINOMA, MAMMARY GLAND: ADENOCARCINOMA, Tumor Site: Type of Lesion: INTESTINES: ADENOCARCINOMA, BRAIN (CEREBRUM): GLIOMA, EAR (DUCT): SQUAMOUS CELL CARCINOMA, MAMMARY GLAND: ADENOCARCINOMA): active; positive | carcinogen call (Species: RAT, Strain/Sex: STRAIN-CD/MALE, Route: GAVAGE, Dose: 10.5, 20.7 MG/KG (AVE DOSE) IN WATER 2/WK FOR 58 WK (LOW DOSE) OR 27 WK (HIGH DOSE), Tumor Site: Type of Lesion: HEMATOPOIETIC SYSTEM (LEUKEMIA): GRANULOCYTIC LEUKEMIA, BRAIN (CEREBRUM): GLIOMA, EAR (DUCT): SQUAMOUS CELL CARCINOMA, I, Tumor Site: Type of Lesion: HEMATOPOIETIC SYSTEM (LEUKEMIA): GRANULOCYTIC LEUKEMIA, BRAIN (CEREBRUM): GLIOMA, EAR (DUCT): SQUAMOUS CELL CARCINOMA, I): active; positive

CCC(=O)Oc1ccc2c(c1)CC[C@@H]1[C@@H]2CC[C@]2(C)[C@@H](OC(=O)CC)CC[C@@H]12
carcinogen call (Species: MOUSE, Route: SUBCUTANEOUS, Tumor Site: Type of Lesion: MAMMARY GLAND): active; positive

CCOC(=O)CC(SP(=O)(OC)OC)C(=O)OCC (configuration not stated)
carcinogen call (Species: MOUSE, Strain/Sex: B6C3F1/FEMALE, Route: ORAL, Dose: 0, 500, 1000 PPM IN DIET, Dose: 0, 500, 1000 PPM IN DIET): inactive; negative | carcinogen call (Species: MOUSE, Strain/Sex: B6C3F1/MALE, Route: ORAL, Dose: 0, 500, 1000 PPM IN DIET, Dose: 0, 500, 1000 PPM IN DIET): inactive; negative | carcinogen call (Species: RAT, Strain/Sex: F344/FEMALE, Route: ORAL, Dose: 0, 500, 1000 PPM IN DIET, Dose: 0, 500, 1000 PPM IN DIET): inactive; negative | carcinogen call (Species: RAT, Strain/Sex: F344/MALE, Route: ORAL, Dose: 0, 500, 1000 PPM IN DIET, Dose: 0, 500, 1000 PPM IN DIET): inactive; negative
